Assay results taken from patent US20090253796A1, “METHOD FOR TREATING VASCULAR DISEASE” (Research Foundation Itsuu Laboratory, priority 2002, published 2009).

How the values were obtained:
[1] = test system: rabbit common iliac artery; assay: Restenosis after indwelling of stent in common iliac artery; format: in vivo; settings: rabbits, oral 1 mg/kg every day, 4 weeks after indwelling of the stent, p<0.05 vs control group
Method: Internal diameter of a rabbit common iliac artery was measured by intravascular ultrasound imaging (IVUS), and then a balloon was expanded to a size of 1 to 1.1 times of the internal diameter and a stent was indwelled. After the indwelling, the internal diameter was measured again by IVUS to confirm that the internal diameter changed 1 to 1.1 times and the stent was precisely indwelled. For each of the control group and Am80-administrated group, 6 rabbits were used. The rabbits were orally administered with Am80 at a dose of 1 mg/kg every day, and 4 weeks after the indwelling of the stent, the arteries at the stent-indwelled sites were collected and fixed to examine tissue images. Serial sections were prepared for the proximal, intermediary, and distal positions within the stent, and areas of tunica media and intima were measured.

[2] = test system: human umbilical artery endothelial cells; assay: BrdU uptake (proliferation) of endothelial cells; format: cell-based; settings: for ratio of uptake of BrdU relative to the uptake without Am80: Endothelial cell, 10% fetal bovine serum, BrdU added after 24 hours, measured for 4 hours
Method: (§1) Rat aorta smooth muscle cells and human umbilical artery endothelial cells were cultured in the presence of 10% fetal bovine serum, and added with Am80 at various concentrations. After 24 hours, BrdU was added to the culture medium, and BrdU uptake ability was measured for 4 hours. The ratios of uptake of BrdU at the various concentrations relative to the uptake obtained without addition of Am80 are summarized in the table. The BrdU uptake ability represents DNA synthesis ability in proportion to the proliferation.

[3] = test system: angiotensin II hypercardia model mice; assay: Angiotensin II hypercardia model; format: in vivo
Method: Mice were administered with angiotensin II at a dose of 3.2 mg/kg/day for two weeks by using an osmotic pressure pump to prepare hypercardia models. After 2 weeks, hypercardia, stromal fibrosing, and fibrosing around coronary artery were observed.

[4] = test system: cuff-injured femoral arteries of wild-type mice (129SVxC57BL6); assay: Cuff-injured femoral artery model; format: in vivo; settings: for neointima of injured blood vessel (in words) / granulation around the cuff (in words): 5 mg/kg/day
Method: Polyethylene tube cuffs were indwelled in femoral arteries of wild-type mice (129SVxC57BL6) to injure the arteries. Am80 was orally administered at a dose of 5 mg/kg/day, and after 5 weeks, appearance and cross sections of the injured sites were evaluated. Areas of neointima of the femoral artery covered with the tube cuff and granulation tissue around the cuff were measured.

[5] = test system: Rat aorta smooth muscle cells; assay: BrdU uptake (proliferation) of smooth muscle cells; format: cell-based; settings: for ratio of uptake of BrdU relative to the uptake without Am80: Smooth muscle cell, 10% fetal bovine serum, BrdU added after 24 hours, measured for 4 hours
Method: as §1

KLF5/BTEB2+/- mice = assay: Cuff injury in KLF5/BTEB2+/- knockout mice; format: in vivo; settings: in which granulation was otherwise suppressed
From the text: It is known that various kinds of growth factors are induced in blood vessel walls against affections in the cardiovascular system remodeling. By using mice (KLF5/BTEB2+/−mice) with hetero-knockout of Zn finger type transcription factor KLF5/BTEB2, which is strongly expressed in neointima of injured blood vessels among such growth factors, studies were made to know whether or not the effect of proliferation of neointima was induced by the retinoid action.

Compound | ratio of intima/tunica media [1] | ratio of uptake of BrdU relative to the uptake without Am80 ([2]; 0.3 μM) | ratio of uptake of BrdU relative to the uptake without Am80 ([2]; 1 μM) | ratio of uptake of BrdU relative to the uptake without Am80 ([2]; 3 μM) | ratio of uptake of BrdU relative to the uptake without Am80 ([2]; 10 μM) | antiproliferative action on vascular endothelial cells (in words) ([2]; summary statement) | onsets of hypercardia, stromal fibrosing, and fibrosing around coronary artery ([3]; angiotensin II 3.2 mg/kg/day plus 5 mg/kg/day compound for two weeks) | Heart weight/body weight ([3]; angiotensin II 3.2 mg/kg/day plus Am80 5 mg/kg/day for two weeks, control mice 5.65 ± 0.195 mg/g) | neointima of injured blood vessel (in words) ([4]; mice, oral 5 mg/kg/day, after 5 weeks, compared with control mice) | neointima of injured blood vessel (in words) ([4]; mice, oral 5 mg/kg/day, after 5 weeks, compared with control mice; listed as 4-[5,6,7,8-tetrahydro-5,5,8,8-tetramethyl-2-naphthalenyl)carbamoyl]benzoic acid) | granulation around the cuff (in words) ([4]; mice, oral 5 mg/kg/day, after 5 weeks, compared with mice not administered) | granulation around the cuff (in words) ([4]; mice, oral 5 mg/kg/day, after 5 weeks, compared with mice not administered; listed as 4-[5,6,7,8-tetrahydro-5,5,8,8-tetramethyl-2-naphthalenyl)carbamoyl]benzoic acid) | Neointima area ([4]; mice, oral 5 mg/kg/day, after 5 weeks, control mice 0.0117 mm^2) | Granulation tissue area ([4]; mice, oral 5 mg/kg/day, after 5 weeks, control mice 1.08 mm^2) | ratio of uptake of BrdU relative to the uptake without Am80 ([5]; 0.3 μM) | ratio of uptake of BrdU relative to the uptake without Am80 ([5]; 1 μM) | ratio of uptake of BrdU relative to the uptake without Am80 ([5]; 3 μM) | ratio of uptake of BrdU relative to the uptake without Am80 ([5]; 10 μM) | antiproliferative action on vascular smooth muscle cells (in words) ([5]; summary statement) | granulation (in words) (KLF5/BTEB2+/- mice)
CC1(C)CCC(C)(C)c2cc(NC(=O)c3ccc(C(=O)O)cc3)ccc21 [Am80] | significantly decreased | 95.1 | 109.4 | 104.0 | 102.1 | substantially no antiproliferative action | markedly suppressed | 4.78 ± 0.170 mg/g | significantly decreased | superior antiproliferative action on neointima | markedly suppressed | markedly suppressed granulation | 0.0019 mm^2 | 0.44 mm^2 | 95.5 | 78.5 | 74.4 | 68.8 | substantially had antiproliferative action | 
CN1c2cc3c(cc2N=C(c2ccc(C(=O)O)cc2)c2ccccc21)C(C)(C)CCC3(C)C [LE135, 4-(5H-7,8,9,10-tetra-hydro-5,7,7,10,10-pentamethylbenzo[e]naphtho[2,3-b][1,4]-diazepin-13-yl)benzoic acid] |  |  |  |  |  |  |  |  |  |  |  |  |  |  |  |  |  |  |  | strong granulation was observed
